Like-named read-outs stand apart in the source and are kept apart here.
What was measured:
[1] = target: T1, human CRTH2 expression cell KB8 (Homo sapiens, UniProt Q9Y5Y4); assay: CRTH2 binding test (3H-PGD2 binding to KB8 cells); conditions: 3H-PGD2 5 nM, 4° C., one hour
T1 construct: host or cells: KB8 cells (human CRTH2 expression cell)
T1 sequence (Q9Y5Y4 1-395): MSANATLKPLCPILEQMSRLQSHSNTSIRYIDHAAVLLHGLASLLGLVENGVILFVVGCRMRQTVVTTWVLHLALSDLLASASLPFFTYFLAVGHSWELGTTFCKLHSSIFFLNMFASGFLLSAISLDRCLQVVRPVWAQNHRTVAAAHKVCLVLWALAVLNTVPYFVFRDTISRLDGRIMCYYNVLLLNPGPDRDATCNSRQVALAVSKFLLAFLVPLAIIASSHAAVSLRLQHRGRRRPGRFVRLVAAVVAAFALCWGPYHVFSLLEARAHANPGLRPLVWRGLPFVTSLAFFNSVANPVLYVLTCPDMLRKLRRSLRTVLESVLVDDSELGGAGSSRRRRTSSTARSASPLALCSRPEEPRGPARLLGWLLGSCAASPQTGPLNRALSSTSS
Experimental: CRTH2 binding inhibitory activity of the compound of the present invention was considered by using a binding test between human CRTH2 expression cell KB8 (BML, INC.) and ^3H-labeled prostaglandin D2 (hereinafter, abbreviated as ^3H-PGD2, manufactured by GE Healthcare).
KB8 was suspended in a reaction buffer solution (Hank's balanced salt solution (Invitrogen) containing 10 mM HEPES (Invitrogen)), which was dispensed in a 96 well plate (Coaster) so that 2×10^5 cells/well are placed. Furthermore, the compound of the present invention and ^3H-PGD2 (final concentration: 5 nM) were added, stirred, and incubated at 4° C.
One hour later, cells were collected on GF/C Filter Plate (PerkinElmer) that had been pre-coated with 0.5% polyethyleneimine solution (SIGMA) by using a Cell Harvester (Packard BioScience), and the radioactivity of the cells was measured by using Top count NXT (PerkinElmer) (a value measured herein was represented by a measurement value “a”). The same procedure was carried out in the absence of the compound, and a measurement value “b” was obtained; and the same procedure was carried out in the absence of the compound and in the presence of non-labeled PGD2 (final concentration: 50 μM), a measurement value “c” was obtained.
The binding inhibition rate of the compound was calculated by the following calculation formula: Bonding inhibitory rate(%)=[1−(a−c)/(b−c)]×100
That is to say, by using binding inhibition rates of compounds to be tested having various concentrations, the IC50 value was calculated according to a dose-dependent inhibition curve analyzed by using XLfit (IDBS) as a data analysis software, and the calculated value was defined as an indicator of the inhibitory activity. In Table 9, A denotes an inhibitory activity showing the IC50 value of less than 50 nM; B denotes an inhibitory activity showing the IC50 value of 50 nM or greater and less than 500 nM; C denotes an inhibitory activity showing the IC50 value of 500 nM or greater and less than 1000 nM; and D denotes an inhibitory activity showing the IC50 value of 1000 nM or greater.

CRTH2 (KB8 cells) = target: T2, CRTH2 (KB8 cells) (Homo sapiens, UniProt Q9Y5Y4); assay: CRTH2 antagonist test (PGD2-induced intracellular calcium ion concentration increase in KB8 cells); type: cell-based
T2 construct: host or cells: KB8 cells (human CRTH2 expression cell)
T2 sequence (Q9Y5Y4 1-395): T1 sequence (Q9Y5Y4 1-395)
Outline: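 Fluo-4-AM-loaded KB8 cells in HBSS with 10 mM HEPES and 1 mM CaCl2 received compound plus PGD2 (final 100 nM); peak fluorescence followed over time. Inhibition was computed against no-compound and unlabelled-PGD2 controls, and IC50 obtained from a dose-response curve.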

[2] = IC50 class, read-out: binding inhibitory activity
[3] = PGD2 final concentration 100 nM, Fluo-4-AM fluorescence, read-out: antagonist activity (IC50 value, inhibition of calcium ion concentration increase)
[4] = read-out: CRTH2 binding inhibitory activity IC50 value

| IC50 [1, 2] | IC50 (CRTH2 (KB8 cells); [3]) | IC50 (CRTH2 (KB8 cells); PGD2 100 nM, Fluo-4 calcium fluorescence, read-out: CRTH2 antagonist activity IC50 value) | IC50 [1, 4] | SMILES |
| --- | --- | --- | --- | --- |
| < 50 nM | < 50 nM |  |  | O=C(O)Cc1cnc(Cc2ccc(NC(=O)c3ccc(Cl)c(Cl)c3)cc2)c2ccccc12 [Example 148, [1-(4-{[(3,4-dichlorophenyl)carbonyl]amino}benzyl)isoquinolin-4-yl]acetic acid] |
| < 50 nM | < 50 nM |  |  | O=C(O)Cc1cnc(C(=O)c2ccc(NC(=O)c3cccc(Cl)c3)cc2)c2ccccc12 [Example 27] |
| < 50 nM | < 50 nM |  |  | O=C(O)Cc1cnc(C(=O)c2ccc(NC(=O)c3ccc(Cl)cc3)cc2)c2ccccc12 [Example 29] |
| 50 to 500 nM |  |  |  | O=C(O)Cc1cnc(C(=O)c2cccc(NC(=O)c3ccc(Cl)c(Cl)c3)c2)c2ccccc12 [Example 127, {1-[(3-{[(3,4-dichlorophenyl)carbonyl]amino}phenyl)carbonyl]isoquinolin-4-yl}acetic acid] |
| 50 to 500 nM |  |  |  | CN(C(=O)c1ccc(Cl)c(Cl)c1)c1ccc(C(=O)c2ncc(CC(=O)O)c3ccccc23)cc1 [Example 128, {1-[(4-{[(3,4-dichlorophenyl)carbonyl](methyl)amino}phenyl)carbonyl]isoquinolin-4-yl}acetic acid] |
| < 50 nM | < 50 nM | 12 nM |  | O=C(O)Cc1cnc(Cc2ccc(C(=O)NCCc3ccc(Cl)cc3)cc2)c2ccccc12 [Example 153, [1-(4-{[2-(4-chlorophenyl)ethyl]carbamoyl}benzyl)isoquinolin-4-yl]acetic acid] |
| < 50 nM | 50 to 500 nM |  | 9.9 nM | O=C(O)Cc1cnc(C(=O)c2ccc(OCCOc3ccc(Cl)cc3)cc2)c2ccccc12 [Example 143] |
| < 50 nM | < 50 nM |  | 2.8 nM | O=C(O)Cc1cnc(C(=O)c2ccc(NC(=O)C3CCC(c4ccc(Cl)cc4)CC3)cc2)c2ccccc12 (stereo not shown) [Example 82] |
| < 50 nM | 50 to 500 nM |  |  | O=C(O)Cc1cnc(C(=O)c2ccc(OCc3ccc(Cl)c(Cl)c3)cc2)c2ccccc12 [Example 134, [1-({4-[(3,4-dichlorobenzyl)oxy]phenyl}carbonyl)isoquinolin-4-yl]acetic acid] |
| < 50 nM | < 50 nM |  |  | O=C(O)Cc1cnc(C(=O)c2ccc(NC(=O)c3ccc4ccccc4c3)cc2)c2ccccc12 [Example 14] |
| < 50 nM | < 50 nM |  | 3.5 nM | O=C(O)Cc1cnc(C(=O)c2ccc(NC(=O)c3cc4ccccc4[nH]3)cc2)c2ccccc12 [Example 18] |
| < 50 nM | < 50 nM |  |  | O=C(O)Cc1cnc(C(=O)c2ccc(NC(=O)c3ccc([N+](=O)[O-])cc3)cc2)c2ccccc12 [Example 15] |
| < 50 nM | < 50 nM |  |  | COc1ccc(CCNC(=O)c2ccc(C(=O)c3ncc(CC(=O)O)c4ccccc34)cc2)cc1 [Example 138] |
| < 50 nM | < 50 nM |  |  | O=C(O)Cc1cnc(C(=O)c2ccc(NC(=O)c3ccc(OC(F)(F)F)cc3)cc2)c2ccccc12 [Example 8] |
| 50 to 500 nM |  |  |  | O=C(O)Cc1cnc(C(=O)c2ccc(NS(=O)(=O)c3ccc(Cl)c(Cl)c3)cc2)c2ccccc12 [Example 129, {1-[(4-{[(3,4-dichlorophenyl)sulfonyl]amino}phenyl)carbonyl]isoquinolin-4-yl}acetic acid] |
| < 50 nM | < 50 nM |  |  | O=C(O)Cc1cnc(C(=O)c2ccc(NCc3ccc(Cl)c(Cl)c3)cc2)c2ccccc12 [Example 133, [1-({4-[(3,4-dichlorobenzyl)amino]phenyl}carbonyl)isoquinolin-4-yl]acetic acid] |
| < 50 nM | < 50 nM |  |  | O=C(O)Cc1cnc(C(=O)c2ccc(NC(=O)CCc3ccc(Cl)c(Cl)c3)cc2)c2ccccc12 [Example 4] |
| < 50 nM | < 50 nM |  |  | O=C(O)Cc1cnc(C(=O)c2ccc(NC(=O)Nc3ccc(Cl)c(Cl)c3)cc2)c2ccccc12 [Example 130, {1-[(4-{[(3,4-dichlorophenyl)carbamoyl]amino}phenyl)carbonyl]isoquinolin-4-yl}acetic acid] |
| < 50 nM | < 50 nM |  |  | O=C(O)Cc1cnc(C(=O)c2ccc(C(=O)NCCc3cccc(Cl)c3)cc2)c2ccccc12 [Example 139] |

| IC50 [1, 2] | IC50 (CRTH2 (KB8 cells); [3]) | IC50 (CRTH2 (KB8 cells); PGD2 100 nM, Fluo-4 calcium fluorescence, read-out: CRTH2 antagonist activity IC50 value) | IC50 [1, 4] | SMILES |
| --- | --- | --- | --- | --- |
| < 50 nM | < 50 nM |  |  | O=C(O)Cc1cnc(C(=O)c2ccc(NC(=O)c3cc4cc(Cl)ccc4[nH]3)cc2)c2ccccc12 [Example 92] |
| < 50 nM | < 50 nM |  |  | COc1ccc(C(=O)Nc2ccc(C(=O)c3ncc(CC(=O)O)c4ccccc34)cc2)cc1 [Example 7] |
| < 50 nM | < 50 nM |  |  | O=C(O)Cc1cnc(C(=O)c2ccc(C(=O)NCCc3ccc(Cl)c(Cl)c3)cc2)c2ccccc12 [Example 137] |
| < 50 nM | < 50 nM |  |  | O=C(O)Cc1cnc(C(=O)c2ccc(C(=O)Nc3ccc(Cl)c(Cl)c3)cc2)c2ccccc12 [Example 136] |
| < 50 nM | 50 to 500 nM |  |  | O=C(O)Cc1cnc(C(=O)c2ccc(NC(=O)CC3CCCCC3)cc2)c2ccccc12 [Example 21] |
| < 50 nM | < 50 nM |  |  | O=C(O)Cc1cnc(C(=O)c2ccc(C(=O)NCCc3ccc(Cl)cc3)cc2)c2ccccc12 [Example 135, {1-[(4-{[2-(4-chlorophenyl)ethyl]carbamoyl}phenyl)carbonyl]isoquinolin-4-yl}acetic acid] |
| < 50 nM | < 50 nM |  |  | O=C(O)Cc1cnc(C(=O)c2ccc(NC(=O)Cc3ccc(Cl)c(Cl)c3)cc2)c2ccccc12 [Example 3] |
| < 50 nM | < 50 nM |  |  | O=C(O)Cc1cnc(C(=O)c2ccc(NC(=O)OCc3ccc(Cl)c(Cl)c3)cc2)c2ccccc12 [Example 131, (1-{[4-({[(3,4-dichlorobenzyl)oxy]carbonyl}amino)phenyl]carbonyl}isoquinolin-4-yl)acetic acid] |
| < 50 nM | < 50 nM |  | 2.9 nM | O=C(O)Cc1cnc(C(=O)c2ccc(NC(=O)c3cccc(Br)c3)cc2)c2ccccc12 [Example 75] |
| < 50 nM | < 50 nM |  |  | O=C(O)Cc1cnc(C(=O)c2ccc(NC(=O)c3ccc(Cl)c(Cl)c3)cc2)c2ccccc12 [Example 2, {1-[(4-{[(3,4-dichlorophenyl)carbonyl]amino}phenyl)carbonyl]isoquinolin-4-yl}acetic acid] |
| < 50 nM | < 50 nM |  | 3.4 nM | CCCCCc1ccc(C(=O)Nc2ccc(C(=O)c3ncc(CC(=O)O)c4ccccc34)cc2)cc1 [Example 57] |
| < 50 nM | < 50 nM |  |  | CN(C)c1ccc(C(=O)Nc2ccc(C(=O)c3ncc(CC(=O)O)c4ccccc34)cc2)cc1 [Example 12] |
| < 50 nM | < 50 nM |  |  | O=C(O)Cc1cnc(C(=O)c2ccc(NC(=O)/C=C/c3ccc(F)cc3)cc2)c2ccccc12 [Example 83] |
| < 50 nM | 50 to 500 nM |  |  | O=C(O)Cc1cnc(C(=O)c2ccc(OCCCc3ccc(Cl)cc3)cc2)c2ccccc12 [Example 142] |
| < 50 nM |  |  |  | O=C(O)Cc1cnc(C(=O)c2ccc(NC(=O)c3ccccn3)cc2)c2ccccc12 [Example 16] |
| 50 to 500 nM |  |  |  | CC(=O)Nc1ccc(C(=O)c2ncc(CC(=O)O)c3ccccc23)cc1 [Example 19] |
| 50 to 500 nM |  |  |  | O=C(O)Cc1cnc(C(=O)c2ccc(Cc3ccccc3)cc2)c2ccccc12 [Example 144, {1-[(4-benzyl phenyl)carbonyl]isoquinolin-4-yl}acetic acid] |
| < 50 nM |  |  |  | O=C(O)Cc1cnc(C(=O)c2ccc(NC(=O)C3CC3)cc2)c2ccccc12 [Example 20] |
